Data set [1] is described as follows: Rat telemetry protocol (core body temperature). The note with it: core body temperature of rats at one hour post dosing (100 μmol/kg, p.o.), relative to vehicle. Format: in vivo. The method, then: Male, Sprague Dawley rats, 225-250 grams were anesthetized with Sevoflurane (Abbott Laboratories). Rats were placed on a heating pad and covered with a sterile surgical drape. A ventral midline abdominal incision was made and sterile cotton tip applicators were used to gently move internal tissue and expose the abdominal aorta for implantation of the telemetry catheter (Data Sciences International; TL11M2-050-PXT). Blood flow was temporarily stopped to the lower extremities (5-7 min) with Diffenbach clamps to allow the insertion of the telemetry catheter into the abdominal aorta. Once inserted, a sterile cellulose patch was placed over the catheter/aorta and secured using a small amount of tissue adhesive (Vetbond, 3M). Once catheter placement was complete, the clamps were removed and blood flow was restored to the lower extremities. The transmitter was placed in the intraperitoneal cavity. The transmitter suture rib was sewn into the abdominal sutures to secure it in place. The skin was closed using sterile wound clips and the animal removed from Sevoflurane. Buprenex ([…] s.c.; Phoenix) was administered for post-operative analgesia. Animals were maintained on a heating pad until ambulatory, and then individually housed with food and water ad lib. Surgical staples were removed after 7-10 days post-implantation. Rats were allowed a 2-week post-surgical recovery period before treatment with test compound. Oral dosing (p.o.) was at time zero, with rats receiving a single dose of vehicle (10% EtOH, 20% Tween-80, 70% PEG-400) or a 100 μmol/kg dose of compound dissolved in vehicle. Temperature measurements were recorded every 15 minutes for the duration of the study (24 hours).
The term “core body temperature” as used herein, means the temperature measured in the intraperitoneal cavity.

Data set [2] has as its target T1, human TRPV1 receptor (hTRPV1) (Homo sapiens, UniProt Q8NER1).
T1 construct: expressed in transfected cells
Kind of data set: Capsaicin activation assay (Ca2+ influx, FLIPR). Format: cell-based. The note with it: 0.05 μM capsaicin, 1321N1 cells expressing hTRPV1. The method, then: Dulbecco's modified Eagle medium (D-MEM) (with 4.5 mg/mL glucose) and fetal bovine serum were obtained from Hyclone Laboratories, Inc. (Logan, Utah). Dulbecco's phosphate-buffered saline (D-PBS) (with 1 mg/mL glucose and 3.6 mg/l Na pyruvate, without phenol red), L-glutamine, hygromycin B, and Lipofectamine® were obtained from Life Technologies (Grand Island, N.Y.). G418 sulfate was obtained from Calbiochem-Novabiochem Corp. (San Diego, Calif.). Capsaicin (8-methyl-N-vanillyl-6-nonenamide) was obtained from Sigma-Aldrich, Co. (St. Louis, Mo.). Fluo-4 AM (N-[4-[6-[(acetyloxy)methoxy]-2,7-difluoro-3-oxo-3H-xanthen-9-yl]-2-[2-[2-[bis[2-[(acetyloxy)methoxy]-2-oxyethyl]amino]-5-methyl-phenoxy]ethoxy]phenyl]-N-[2-[(acetyloxy)methoxy]-2-oxyethyl]-glycine, (acetyloxy)methyl ester) was purchased from Molecular Probes (Eugene, Oreg.).
The cDNAs for the human TRPV1 receptor (hTRPV1) were isolated by reverse transcriptase-polymerase chain reaction (RT-PCR) from human small intestine poly A+RNA supplied by Clontech (Palo Alto, Calif.) using primers designed surrounding the initiation and termination codons identical to the published sequences (Hayes et al. Pain 2000, 88, 205-215). The resulting cDNA PCR products were subcloned into pCIneo mammalian expression vector (Promega) and fully sequenced using fluorescent dye-terminator reagents (Prism, Perkin-Elmer Applied Biosystems Division) and a Perkin-Elmer Applied Biosystems Model 373 DNA sequencer or Model 310 genetic analyzer. Expression plasmids encoding the hTRPV1 cDNA were transfected individually into 1321N1 human astrocytoma cells using Lipofectamine®. Forty-eight hours after transfection, the neomycin-resistant cells were selected with growth medium containing 800 μg/mL Geneticin (Gibco BRL). Surviving individual colonies were isolated and screened for TRPV1 receptor activity. Cells expressing recombinant homomeric TRPV1 receptors were maintained at 37° C. in D-MEM containing 4 mM L-glutamine, 300 μg/mL G418 (Cal-biochem) and 10% fetal bovine serum under a humidified 5% CO2 atmosphere.
The functional activity of compounds at the TRPV1 receptor was determined with a Ca^2+ influx assay and measurement of intracellular Ca^2+ levels ([Ca^2+]i). All compounds were tested over an 11-point half-log concentration range. Compound solutions were prepared in D-PBS (4× final concentration), and diluted serially across 96-well v-bottom tissue culture plates using a Biomek 2000 robotic automation workstation (Beckman-Coulter, Inc., Fullerton, Calif.). A 0.2 μM solution of the TRPV1 agonist capsaicin was also prepared in D-PBS. The fluorescent Ca^2+ chelating dye Fluo-4 AM was used as an indicator of the relative levels of [Ca^2+]i in a 96-well format using a Fluorescence Imaging Plate Reader (FLIPR) (Molecular Devices, Sunnyvale, Calif.). Cells were grown to confluency in 96-well black-walled tissue culture plates. Then, prior to the assay, the cells were loaded with 100 μL per well of Fluo-4 AM (2 μM, in D-PBS) for 1-2 hours at 23° C. Washing of the cells was performed to remove extracellular Fluo-4 AM (2×1 mL D-PBS per well), and afterward, the cells were placed in the reading chamber of the FLIPR instrument. 50 μL of the compound solutions were added to the cells at the 10 second time mark of the experimental run. Then, after a 3-minute time delay, 50 μL of the capsaicin solution was added at the, 190 second time mark (0.05 μM final concentration)(final volume=200 μL) to challenge the TRPV1 receptor. Time length of the experimental run was 240 seconds. Fluorescence readings were made at 1 to 5 second intervals over the course of the experimental run. The peak increase in relative fluorescence units (minus baseline) was calculated from the 190 second time mark to the end of the experimental run, and expressed as a percentage of the 0.05 μM capsaicin (control) response. […]

T1 sequence (Q8NER1 whole entry): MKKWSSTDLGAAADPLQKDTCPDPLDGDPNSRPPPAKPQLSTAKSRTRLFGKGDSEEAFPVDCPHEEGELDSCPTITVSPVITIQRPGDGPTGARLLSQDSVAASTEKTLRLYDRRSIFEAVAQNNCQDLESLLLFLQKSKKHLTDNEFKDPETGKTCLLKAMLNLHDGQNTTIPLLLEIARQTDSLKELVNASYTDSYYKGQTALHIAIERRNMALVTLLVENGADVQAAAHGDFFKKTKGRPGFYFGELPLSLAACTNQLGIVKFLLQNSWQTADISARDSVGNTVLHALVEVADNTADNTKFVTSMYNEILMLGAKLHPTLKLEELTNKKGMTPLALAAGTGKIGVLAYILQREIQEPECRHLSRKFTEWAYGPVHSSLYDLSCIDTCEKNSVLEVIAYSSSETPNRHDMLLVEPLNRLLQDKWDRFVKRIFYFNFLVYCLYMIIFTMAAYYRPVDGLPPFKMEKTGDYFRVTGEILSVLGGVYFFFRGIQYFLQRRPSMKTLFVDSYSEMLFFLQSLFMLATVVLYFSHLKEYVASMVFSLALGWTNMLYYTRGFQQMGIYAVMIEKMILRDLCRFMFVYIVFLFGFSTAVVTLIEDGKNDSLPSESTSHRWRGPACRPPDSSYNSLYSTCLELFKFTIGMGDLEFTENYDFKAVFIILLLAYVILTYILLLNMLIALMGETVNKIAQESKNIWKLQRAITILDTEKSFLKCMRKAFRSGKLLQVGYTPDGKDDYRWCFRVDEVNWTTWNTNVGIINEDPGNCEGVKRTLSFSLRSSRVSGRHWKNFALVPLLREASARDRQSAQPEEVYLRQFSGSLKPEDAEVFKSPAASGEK

On to `Cn1ncc2c(NC(=O)N[C@@H]3CC(C)(C)Oc4ccc(F)cc43)cccc21` [Example 1, N-[(4R)-6-fluoro-2,2-dimethyl-3,4-dihydro-2H-chromen-4-yl]-N′-(1-methyl-1H-indazol-4-yl)urea], for which the “Δ Temp” value in data set [1] came out at 0.5 °C. The 50% inhibitory concentration (IC50) in data set [2] was found to be 229 nM. As for `CC1(C)C[C@@H](NC(=O)Nc2cccc3c2C[C@@H](O)CC3)c2cc(F)ccc2O1` [Example 3, N-[(4R)-6-fluoro-2,2-dimethyl-3,4-dihydro-2H-chromen-4-yl]-N′-[(7S)-7-hydroxy-5,6,7,8-tetrahydronaphthalen-1-yl]urea], the “Δ Temp” value in data set [1] is 0.6 °C. The compound also registered an IC50 in data set [2] of 32 nM. For `CC1(C)C[C@@H](NC(=O)Nc2cccc3c2C[C@H](O)CC3)c2cc(F)ccc2O1` [Example 4, N-[(4R)-6-fluoro-2,2-dimethyl-3,4-dihydro-2H-chromen-4-yl]-N′-[(7R)-7-hydroxy-5,6,7,8-tetrahydronaphthalen-1-yl]urea], in data set [1], the “Δ Temp” value was determined as 0.6 °C. In data set [2], half-maximal inhibition (IC50) required 30 nM. On the same counts, the results for `O=C(Nc1cccc2c1C[C@@H](O)CC2)N[C@@H]1CC2(CCC2)Oc2ccc(F)cc21` [Example 9, N-[(4R)-6-fluoro-3,3′,4,4′-tetrahydro-2′H-spiro[chromene-2,1′-cyclobutan]-4-yl]-N′-[(7S)-7-hydroxy-5,6,7,8-tetrahydronaphthalen-1-yl]urea] are 0.9 °C and 28 nM. Regarding `CC1(C)C[C@@H](NC(=O)Nc2cccc3c2C[C@H](O)CC3)c2cc(F)cc(F)c2O1` [Example 18, N-[(4R)-6,8-difluoro-2,2-dimethyl-3,4-dihydro-2H-chromen-4-yl]-N′-[(7R)-7-hydroxy-5,6,7,8-tetrahydronaphthalen-1-yl]urea], the “Δ Temp” value in data set [1] was found to be 1.4 °C. The same compound displayed an IC50 in data set [2] of 29 nM. Turning to `Cn1ncc2c(NC(=O)N[C@@H]3CC(C)(C)Oc4cc(F)ccc43)cccc21` [Example 24, N-[(4R)-7-fluoro-2,2-dimethyl-3,4-dihydro-2H-chromen-4-yl]-N′-(1-methyl-1H-indazol-4-yl)urea], the “Δ Temp” value in data set [1] was 1.3 °C. Besides, the half-inhibitory concentration (IC50) in data set [2] was determined as 52 nM. `CC1(C)C[C@@H](NC(=O)Nc2cccc3[nH]ncc23)c2ccc(F)cc2O1` [Example 29, N-[(4R)-7-fluoro-2,2-dimethyl-3,4-dihydro-2H-chromen-4-yl]-N′-1H-indazol-4-ylurea]: in data set [1], the “Δ Temp” value was found to be 1.2 °C. In addition, inhibition in data set [2] was half-maximal at 13 nM (IC50). On the same counts, the results for `Cn1ncc2c(NC(=O)N[C@@H]3CC(C)(C)Oc4cc(C(F)(F)F)ccc43)cccc21` [Example 33, N-[(4R)-2,2-dimethyl-7-(trifluoromethyl)-3,4-dihydro-2H-chromen-4-yl]-N′-(1-methyl-1H-indazol-4-yl)urea] are 1.4 °C and 14 nM. On the same counts, the results for `CC1(C)C[C@@H](NC(=O)Nc2cccc3c2C[C@H](O)CC3)c2ccccc2O1` [Example 36, N-[(4R)-2,2-dimethyl-3,4-dihydro-2H-chromen-4-yl]-N′-[(7R)-7-hydroxy-5,6,7,8-tetrahydronaphthalen-1-yl]urea] are 0.7 °C and 33 nM.

On to `Cn1ncc2c(NC(=O)N[C@@H]3CC(C)(C)Oc4cc(OC(F)(F)F)ccc43)cccc21` [Example 39, N-[(4R)-2,2-dimethyl-7-(trifluoromethoxy)-3,4-dihydro-2H-chromen-4-yl]-N′-(1-methyl-1H-indazol-4-yl)urea], for which, in data set [1], the “Δ Temp” value was 0.7 °C. The IC50 in data set [2] stood at 25 nM. On the same counts, the results for `CC1(C)C[C@@H](NC(=O)Nc2cccc3cnccc23)c2ccc(OC(F)(F)F)cc2O1` [Example 40, N-[(4R)-2,2-dimethyl-7-(trifluoromethoxy)-3,4-dihydro-2H-chromen-4-yl]-N′-isoquinolin-5-ylurea] are 0.8 °C and 5 nM. Turning to `Cn1ncc2c(NC(=O)N[C@@H]3CC(C)(C)Oc4c3cccc4C(F)(F)F)cccc21` [Example 42, N-[(4R)-2,2-dimethyl-8-(trifluoromethyl)-3,4-dihydro-2H-chromen-4-yl]-N′-(1-methyl-1H-indazol-4-yl)urea], the “Δ Temp” value in data set [1] was 0.6 °C. In data set [2], half-maximal inhibition (IC50) required 20 nM. Take `CC1(C)C[C@@H](NC(=O)Nc2cccc3ccncc23)c2ccc(C(F)(F)F)cc2O1` [Example 43, N-[(4R)-2,2-dimethyl-7-(trifluoromethyl)-3,4-dihydro-2H-chromen-4-yl]-N′-isoquinolin-8-ylurea]: the “Δ Temp” value in data set [1] was 1.5 °C. This compound also gave a half-maximal inhibitory concentration (IC50) in data set [2] of 28 nM. With `CC1(C)C[C@@H](NC(=O)Nc2cccc3[nH]ncc23)c2cccc(C(F)(F)F)c2O1` [Example 45, N-[(4R)-2,2-dimethyl-8-(trifluoromethyl)-3,4-dihydro-2H-chromen-4-yl]-N′-1H-indazol-4-ylurea], the “Δ Temp” value in data set [1] was 0.5 °C. In addition, 11 nM corresponded to half-maximal inhibition in data set [2] (IC50). Take `CCC1(CC)C[C@@H](NC(=O)Nc2cccc3c2cnn3C)c2ccc(F)cc2O1` [Example 46, N-[(4R)-2,2-diethyl-7-fluoro-3,4-dihydro-2H-chromen-4-yl]-N′-(1-methyl-1H-indazol-4-yl)urea]: the “Δ Temp” value in data set [1] was found to be 0.7 °C. The IC50 in data set [2] was found to be 17 nM. On the same counts, the results for `CCC1(CC)C[C@@H](NC(=O)Nc2cccc3c2cnn3C)c2ccc(C(F)(F)F)cc2O1` [Example 49, N-[(4R)-2,2-diethyl-7-(trifluoromethyl)-3,4-dihydro-2H-chromen-4-yl]-N′-(1-methyl-1H-indazol-4-yl)urea] are 1.3 °C and 71 nM. For `CCC1(CC)C[C@@H](NC(=O)Nc2cccc3c2C[C@H](O)CC3)c2cccc(F)c2O1` [Example 52, N-[(4R)-2,2-diethyl-8-fluoro-3,4-dihydro-2H-chromen-4-yl]-N′-[(7R)-7-hydroxy-5,6,7,8-tetrahydronaphthalen-1-yl]urea], the “Δ Temp” value in data set [1] is 1.2 °C. In data set [2], this compound yielded an IC50 of 20 nM. “N-[(2R,4R)-2-(fluoromethyl)-2-methyl-7-(trifluoromethyl)-3,4-dihydro-2H-chromen-4-yl]-N-(3-methylisoquinolin-5-yl)urea [Example 127]” registered an IC50 in data set [2] of 25 nM. For the compound “N-[(4R)-2,2-diethyl-8-fluoro-3,4-dihydro-2H-chromen-4-yl]-N-isoquinolin-8-ylurea [Example 83]”, the IC50 in data set [2] is 21 nM.

By IC50 is commonly meant the concentration that inhibits the measured activity by half. The low end stands for higher potency, the high end for lower potency.

Source of the values: patent US8609692B2, “TRPV1 antagonists” (AbbVie Inc., priority 2008, dated 2013).
